Test results as given in US10450327B2, “Epidithiodioxopiperazine compound or its derivatives, and the use thereof” (priority 2011, dated 2019).

Legend:
[1] = test system: yeast thioredoxin (Trx) / yeast thioredoxin reductase (TR) system; assay: Peroxidase activity assay (hydrogen peroxide reduction), Trx/TR system; type: biochemical; conditions: 25 μM ETP compound, 30° C., NADPH oxidation at 340 nm
Procedure: The peroxidase activity assay for the epidithiodioxopiperazine derivatives according to the present invention (hereinafter, referred to as ETP compounds) was performed according to known methods [Korean Patent No. 10-0953326]. A standard peroxidase reaction for spectrophotometric assay was carried out using a 200 μl reaction mixture of 1 mM EDTA-containing 50 mM Hepes-NaOH buffer solution (pH 7.0) including 250 μM NADPH, 3 μM yeast thioredoxin (Trx), 1.5 μM yeast thioredoxin reductase (TR), 25 μM ETP compound and […] of hydrogen peroxide. For the comparison with a glutathione (GSH)-dependent peroxidase reaction, GSH (1 mM) and yeast glutathione reductase (GSH reductase; GR) (1 Unit) were added instead of yeast Trx and TR. Each reaction was initiated by adding hydrogen peroxide, and the NADPH oxidation was monitored for 12 minutes at 30° C. according to absorbance decrease at 340 nm using an Agilent UV8453 spectrophotometer (Hewlett Packard, USA). The initial reaction rate was calculated using the linear portion of the curve and expressed as the amount of NADPH oxidized per minute.
The chemical feature of the epidithiodioxopiperazine compound of the present invention or its derivatives is the intramolecular disulfide bridge present in the epidithiodioxopiperazine ring moiety. Cellular peroxidase reduces hydrogen peroxide utilizing the electrons derived from NADPH via two electron-transfer routes, that is, Trx/TR or GSH/GR, therefore, spectrophotometric assay was performed for the hydrogen peroxide-reducing activity in the presence of each system, and the results are shown in FIGS. 1 to 5.

NADPH oxidase (NOX) = assay: NADPH oxidase activity assay (whole cell superoxide production); type: cell-based, human; conditions: HASMCs with PDGF-B and HAECs with VEGF-A; until concentrations increased up to 500 nM
Procedure: Whole cell superoxide production was measured using an enhanced luminescence system (Diogenes, National Diagnostics). For the assay, the serum-starved cells were pre-incubated with a 100 μl Diogene reagent at 37° C. for 5 minutes. After being stimulated by the indicated growth factor, chemiluminescence was detected every second for 10 minutes with a TD-20/20 Luminometer (Turner Biosystems).
When HASMCs and HAECs were stimulated with PDGF-B and VEGF-A, respectively, the NOX activity increased approximately twofold. […] Thus, it was seen that these ETP compounds function as hydrogen peroxide reductase capable of replacing PrxII in both vascular cells, but the mechanism was not the inhibition of hydrogen peroxide producer NOX.

[2] = test system: left carotid artery of a PrxII−/− mouse; assay: Wire-injured carotid artery of PrxII−/− mouse; type: in vivo; conditions: filter paper strip soaked in GT solution, 30 minutes; 10th day after injury
Procedure: In addition, in order to identify the effects of GT on vascular thickening in a PrxII−/− mouse, left carotid artery of a PrxII−/− mouse was damaged using a flexible wire. After the injury, a Whatman No. 1 filter paper strip was soaked in a control vehicle or a GT solution, and the paper was attached to the surface of vascular epithelia for 30 minutes for the solution to permeate into the tissue. The mouse was recovered at the 10th day after the injury. As a result, the ratio of intima versus media measured from the HE-stained carotid artery sample was presented as mean+− standard error (n=8 per group, *p<0.01).

[3] = test system: Src/ERK, β-catenin, E-cadherin; assay: Serum-induced signaling and E-cadherin expression, SK28 cells; type: cell-based, human
Procedure: The cells were rinsed with an ice-cold phosphate buffered saline (PBS) solution and then lysed in an extraction buffer solution containing 20 mM Hepes (pH 7.0), 1% Triton X-100, 150 mM NaCl, 10% glycerol, 1 mM EDTA, 2 mM EGTA, 1 mM DTT, 5 mM Na3VO4, 5 mM NaF, 1 mM AEBSF, aprotinin (5 μg/ml), and leupeptin (5 μg/ml). After being centrifuged at 12,000×g, the purified cell extracts were used for immunoblotting. In order to adjust the loading, the membranes were stripped by shaking them for 30 minutes at 60° C. in 67 mM Tris (pH 6.7), 2% SDS, and 100 mM 2-mercaptoethanol solution, and reprobed with an appropriate pan antibody.
This proves the peroxidase activity of GT. Again, while GT treatment in the SK28 cells reduced Src/ERK activation and β-catenin phosphorylation, it increased the expression of E-cadherin (FIG. 53B). Furthermore, GT reduced the proliferation and the migration responding to serum stimulation in both SK5 and SK28 cells (FIGS. 53C and D).

SK-MEL-28 (SK28) cells = assay: Melanoma proliferation and migration assay, SK28; type: cell-based, human; conditions: 100 nM, 1 hour pretreatment
Procedure: The extent of cell proliferation was measured using a WST-1 cell proliferation assay kit (Roche Diagnostics, USA) according to the protocol of the manufacturer. The number of cells was expressed as an absorbance value at 450 nm averaged from 3 wells after subtracting the turbidity at 600 nm. The chemotactic transmigration assay was performed in a 24-well Transwell culture chamber (Costar; polycarbonate membrane insert with 8-μm pore size). The bottom of the insert was coated with gelatin B (1 mg/ml) and air-dried for 1 hour. Retroviruses or transfection complexes were treated to melanoma cells (6×10^3). After 24 hours, the infected or transfected melanoma cells were serum-starved for 18 hours. A 20% FBS solution was added to bottom chambers including a basal medium containing 0.5% BSA. The upper chamber wells were each filled with a basal medium including 0.5% BSA. The Transwell chamber was incubated for 12 hours in a 37° C./5% CO2 incubator. After the incubation, the non-migrating cells at the top of the filter were removed. The cells that migrated onto the bottom of filter were fixed and stained with 0.6% hematoxylin and 0.5% eosin. The stained cells were photographed and counted. The number of migrating cells was averaged from 3 wells. […]

B16F10 melanoma cells = assay: Metastasis of B16F10 melanoma cells to lung in mouse; type: in vivo
Procedure: After B16F10 cells were temporarily transfected with PrxII siRNA for 24 hours and trypsinized, the cells were resuspended in a Hank's balanced salt solution (HBSS). The cell suspension was injected by intravenous injection to a C57/BL6 mouse (1×10^6 cells per mouse). The mouse was sacrified after 10 days, and the lung was removed after transcardia perfusion-fixation with a heparinized saline solution including 3.7% formaldehyde. The removed lung was paraffin embedded and sectioned using a rotary microtome (Leica RM2255). Two serial tissue sections (4 μm in thickness) were stained with haematoxylin and eosin. The melanoma tumor nodules metastasized from the surface of the lung and the HE-stained tissue sections were counted. In order to verify the effects of gliotoxin (GT), chaetocin and chetomin, the melanoma cells were intravenously injected to the C57/BL6 mouse, and then gliotoxin (300 mg/kg) was intraperitoneally injected for 5 times over 10 days.

Q: For `CN1C(=O)[C@]23CC4=CC=C[C@H](O)[C@H]4N2C(=O)[C@@]1(CO)SS3` [gliotoxin], which “hydrogen peroxide-reducing activity in the presence of a Trx/TR system” value [1] is on record?
A: 3.72 ± 0.53 nmol/min

Q: And the NOX activity (NADPH oxidase (NOX))?
A: did not inhibit

Q: And the “vascular thickening (ratio of intima versus media)” value [2]?
A: markedly reduced

Q: And the “expression of E-cadherin” value [3]?
A: increased

Q: And the “Src/ERK activation and β-catenin phosphorylation” value ([3]; serum stimulation)?
A: reduced

Q: What about the “proliferation and migration responding to serum stimulation, SK28” value (SK-MEL-28 (SK28) cells) of the same compound?
A: reduced

Q: And the “metastasis of B16F10 melanoma cells to lung (tumor nodules)” value (B16F10 melanoma cells; i.p. 5 times over 10 days after i.v. injection of B16F10 cells)?
A: significantly reduced

Q: And the “metastasis of PrxII-knocked down B16F10 to lung” value (B16F10 melanoma cells; mPrx2-1 siRNA-transfected cells, i.p. 5 times over 10 days)?
A: more significantly reduced
